Measured values reported in patent US20120065066A1, “NOVEL HERBICIDES” (SYNGENTA CROP PROTECTION LLC, priority 2009, published 2012).

Experiments:
Type in all cases: in vivo
[1] = system: Echinochloa crus-galli (ECHCG); experiment: Test Example B, pre-emergence herbicidal test; details: 312 h, evaluated after 13 days, 100=total damage to plant, 0=no damage to plant
Protocol: (§1) Seeds of a variety of test species were sown in standard soil in pots. After cultivation for one day (pre-emergence) or after 8 days cultivation (post-emergence) under controlled conditions in a glasshouse (at 24/16° C., day/night; 14 hours light; 65% humidity), the plants were sprayed with an aqueous spray solution derived from the formulation of the technical active ingredient in acetone/water (50:50) solution containing 0.5% Tween 20 (polyoxyethelyene sorbitan monolaurate, CAS RN 9005-64-5). The test plants were then grown in a glasshouse under controlled conditions in a glasshouse (at 24/16° C., day/night; 14 hours light; 65% humidity) and watered twice daily. After 13 days for pre and post-emergence, the test was evaluated (100=total damage to plant; 0=no damage to plant). Test Plants: Setaria faberi (SETFA), Alopecurus myosuroides (ALOMY), Echinochloa crus-galli (ECHCG), and Avena fatua (AVEFA).

[2] = system: Avena fatua (AVEFA); experiment: Test Example B, pre-emergence herbicidal test; details: 312 h, evaluated after 13 days, 100=total damage to plant, 0=no damage to plant
Protocol: as §1

[3] = system: Setaria faberi (SETFA); experiment: Test Example B, pre-emergence herbicidal test; details: 250 g/ha, evaluated after 13 days, 100=total damage to plant, 0=no damage to plant
Protocol: as §1

[4] = system: Alopecurus myosuroides (ALOMY); experiment: Test Example B, pre-emergence herbicidal test; details: 312 h, evaluated after 13 days, 100=total damage to plant, 0=no damage to plant
Protocol: as §1

[5] = system: Echinochloa crus-galli (ECHCG); experiment: Test Example B, post-emergence herbicidal test; details: 312 h, evaluated after 13 days, 100=total damage to plant, 0=no damage to plant
Protocol: as §1

[6] = system: Avena fatua (AVEFA); experiment: Test Example B, post-emergence herbicidal test; details: 312 h, evaluated after 13 days, 100=total damage to plant, 0=no damage to plant
Protocol: as §1

[7] = system: Setaria faberi (SETFA); experiment: Test Example B, post-emergence herbicidal test; details: 250 g/ha, evaluated after 13 days, 100=total damage to plant, 0=no damage to plant
Protocol: as §1

[8] = system: Alopecurus myosuroides (ALOMY); experiment: Test Example B, post-emergence herbicidal test; details: 312 h, evaluated after 13 days, 100=total damage to plant, 0=no damage to plant
Protocol: as §1

[9] = system: Echinochloa crus-galli (ECHCG); experiment: Test Example 1, pre-emergence herbicidal test; details: 480 h, evaluated 20 days later, 100=total damage to plant, 0=no damage to plant
Protocol: (§2) Monocotyledonous and dicotyledonous test plants were sown in standard soil in pots. After cultivation for one day (pre-emergence) or after 10 days cultivation (post-emergence) under controlled conditions in a glasshouse, the plants were sprayed with an aqueous spray solution derived from the formulation of the technical active ingredient in 0.6 ml acetone and 45 ml formulation solution containing 10.6% Emulsogen EL (Registry number 61791-12-6), 42.2% N-methylpyrrolidone, 42.2% dipropylene glycol monomethyl ether (Registry number 34590-94-8) and 0.2% X-77 (Registry number 11097-66-8). The test plants were then grown in a greenhouse under optimum conditions until, 15 days later for post-emergence and 20 days for pre-emergence, the test was evaluated (100=total damage to plant; 0=no damage to plant). Test Plants: Lolium perenne (LOLPE), Setaria faberi (SETFA), Digitaria sanguinalis (DIGSA), Alopecurus myosuroides (ALOMY), Echinochloa crus-galli (ECHCG) and Avena fatua (AVEFA), Pre-Emergence Data: […]

[10] = system: Avena fatua (AVEFA); experiment: Test Example 1, pre-emergence herbicidal test; details: 480 h, evaluated 20 days later, 100=total damage to plant, 0=no damage to plant
Protocol: as §2

[11] = system: Lolium perenne (LOLPE); experiment: Test Example 1, pre-emergence herbicidal test; details: 480 h, evaluated 20 days later, 100=total damage to plant, 0=no damage to plant
Protocol: as §2

[12] = system: Digitaria sanguinalis (DIGSA); experiment: Test Example 1, pre-emergence herbicidal test; details: 480 h, evaluated 20 days later, 100=total damage to plant, 0=no damage to plant
Protocol: as §2

[13] = system: Setaria faberi (SETFA); experiment: Test Example 1, pre-emergence herbicidal test; details: 480 h, evaluated 20 days later, 100=total damage to plant, 0=no damage to plant, read-out: SEFTA damage to plant
Protocol: as §2

[14] = system: Alopecurus myosuroides (ALOMY); experiment: Test Example 1, pre-emergence herbicidal test; details: 480 h, evaluated 20 days later, 100=total damage to plant, 0=no damage to plant
Protocol: as §2

[15] = system: Echinochloa crus-galli (ECHCG); experiment: Test Example 1, post-emergence herbicidal test; details: 360 h, evaluated 15 days later, 100=total damage to plant, 0=no damage to plant
Protocol: as §2, with “Post-Emergence” for “Pre-Emergence”

[16] = system: Avena fatua (AVEFA); experiment: Test Example 1, post-emergence herbicidal test; details: 360 h, evaluated 15 days later, 100=total damage to plant, 0=no damage to plant
Protocol: as §2, with “Post-Emergence” for “Pre-Emergence”

[17] = system: Lolium perenne (LOLPE); experiment: Test Example 1, post-emergence herbicidal test; details: 360 h, evaluated 15 days later, 100=total damage to plant, 0=no damage to plant
Protocol: as §2, with “Post-Emergence” for “Pre-Emergence”

[18] = system: Digitaria sanguinalis (DIGSA); experiment: Test Example 1, post-emergence herbicidal test; details: 360 h, evaluated 15 days later, 100=total damage to plant, 0=no damage to plant
Protocol: as §2, with “Post-Emergence” for “Pre-Emergence”

[19] = system: Setaria faberi (SETFA); experiment: Test Example 1, post-emergence herbicidal test; details: 360 h, evaluated 15 days later, 100=total damage to plant, 0=no damage to plant, read-out: SEFTA damage to plant
Protocol: as §2, with “Post-Emergence” for “Pre-Emergence”

[20] = system: Alopecurus myosuroides (ALOMY); experiment: Test Example 1, post-emergence herbicidal test; details: 360 h, evaluated 15 days later, 100=total damage to plant, 0=no damage to plant
Protocol: as §2, with “Post-Emergence” for “Pre-Emergence”

SMILES	pest or weed control at 250 g/ha [1]	pest or weed control at 250 g/ha [2]	SETFA damage to plant [3]	pest or weed control at 250 g/ha [4]	pest or weed control at 250 g/ha [5]	pest or weed control at 250 g/ha [6]	SETFA damage to plant [7]	pest or weed control at 250 g/ha [8]	pest or weed control at 250 g/ha [9]	pest or weed control at 250 g/ha [10]	pest or weed control at 250 g/ha [11]	pest or weed control at 250 g/ha [12]	pest or weed control at 250 g/ha [13]	pest or weed control at 250 g/ha [14]	pest or weed control at 125 g/ha [15]	pest or weed control at 125 g/ha [16]	pest or weed control at 125 g/ha [17]	pest or weed control at 125 g/ha [18]	pest or weed control at 125 g/ha [19]	pest or weed control at 125 g/ha [20]
CCc1ccc(-c2ccc(Cl)cc2)cc1C1=C(O)[C@H]2[C@@H]3CC[C@@H](C(=O)C3)[C@H]2C1=O (racemic) [Compound T7, rac-(3aS,4R,7R,7aR)-2-(4′-chloro-4-ethylbiphenyl-3-yl)hexahydro-4,7-ethanoindene-1,3,8-trione]	100%	70%	90	90%	20%	20%	60	20%												
CCc1ccc(-c2ccc(Cl)cc2)cc1C1=C(O)[C@H]2[C@@H]3CC[C@@H](C(=NOC)C3)[C@H]2C1=O (racemic) [Compound T9, rac-(3aS,4R,7R,7aR)-2-(4′-chloro-4-ethylbiphenyl-3-yl)hexahydro-4,7-ethanoindene-1,3,8-trione 8-(O-methyloxime)]	0%	0%	0	0%	90%	60%	100	70%												
Cc1cc(C)c(C2=C(O)[C@H]3[C@H]4CC[C@H](C4)[C@H]3C2=O)c(C)c1 (racemic) [Compound T50, rac-(5S,6S,7R)-2-(2,4,6-trimethylphenyl)hexahydro-4,7-methanoindene-1,3-dione]									70%	50%	100%	80%	100%	70%	20%	10%	30%	30%	0%	30%
CCc1ccc(-c2ccc(Cl)cc2)cc1C1=C(O)[C@H]2C3CCC(C3=C(C)C)[C@H]2C1=O (stereo partly shown) [Compound T21]									30%	20%	40%	50%	60%	60%	0%	20%	0%	20%	20%	20%
Cc1cc(C)c(C2=C(O)[C@H]3[C@H]4CC[C@H](CC4)[C@H]3C2=O)c(C)c1 [Compound T47]									70%	50%	80%	100%	100%	90%	60%	40%	40%	80%	60%	0%
CCc1cc(C)cc(CC)c1C1=C(O)[C@H]2[C@H]3CC[C@H](C3)[C@H]2C1=O [Compound T49]									100%	70%	100%	100%	100%	100%	100%	80%	100%	100%	100%	100%
CCc1cc(C)cc(CC)c1C1=C(O)[C@@H]2[C@H](C1=O)[C@@H]1CC[C@H]2C1=C(C)C [Compound T51]									90%	60%	100%	80%	80%	60%	10%	0%	50%	30%	0%	30%
CCc1cc(C)cc(CC)c1C1=C(O)[C@@H]2[C@H](C1=O)[C@H]1CC[C@@H]2C1=C(C)C [Compound T52]									90%	60%	70%	80%	100%	50%	80%	20%	50%	70%	80%	90%
Cc1cc(C)c(C2=C(O)[C@@H]3[C@H](C2=O)[C@@H]2C=C[C@H]3CC2)c(C)c1 [Compound T53]									70%	40%	100%	80%	100%	70%	60%	0%	30%	50%	20%	20%
CCc1cc(C)cc(CC)c1C1=C(O)[C@H]2[C@@H]3CC[C@@H](C(=O)C3)[C@H]2C1=O [Compound T54]									70%	70%	90%	80%	80%	70%	80%	60%	50%	80%	80%	60%
CCc1cc(C)cc(CC)c1C1=C(O)[C@H]2[C@H]3C=C[C@](OC)(CC3)[C@H]2C1=O [Compound T55]									100%	70%	100%	100%	100%	100%	100%	80%	70%	80%	90%	80%
